# In patent publication US9951063B2, “8-(piperazin-1-yl)-1,2,3,4-tetrahydro-isoquinoline derivatives” (IDORSIA PHARMACEUTICALS LTD, priority 2014, dated 2018):
# pIC50: −log10 of the molar value.
# Target: human CXCR3A (Homo sapiens (Human), UniProt P49682)
# Test: FLIPR assay (inhibition of CXCL10-induced calcium signal)
# Assay type: cell-based
# Conditions: engineered CHO-K1 cells expressing human CXCR3A coupled to Galpha(16); Fluo-4-AM; CXCL10 agonist 20 nM; mean values where determined several times
# Summary of the method: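 CHO-K1 cells expressing human CXCR3A coupled to Gα16 were loaded with Fluo-4-AM for 1 h in HBSS/20 mM Hepes pH 7.4 with probenecid. Compound was added, then CXCL10 (20 nM as dispensed). Baseline-subtracted peak fluorescence gave inhibition curves and IC50, averaged over repeats.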
# Sequence of human CXCR3A (P49682 whole entry): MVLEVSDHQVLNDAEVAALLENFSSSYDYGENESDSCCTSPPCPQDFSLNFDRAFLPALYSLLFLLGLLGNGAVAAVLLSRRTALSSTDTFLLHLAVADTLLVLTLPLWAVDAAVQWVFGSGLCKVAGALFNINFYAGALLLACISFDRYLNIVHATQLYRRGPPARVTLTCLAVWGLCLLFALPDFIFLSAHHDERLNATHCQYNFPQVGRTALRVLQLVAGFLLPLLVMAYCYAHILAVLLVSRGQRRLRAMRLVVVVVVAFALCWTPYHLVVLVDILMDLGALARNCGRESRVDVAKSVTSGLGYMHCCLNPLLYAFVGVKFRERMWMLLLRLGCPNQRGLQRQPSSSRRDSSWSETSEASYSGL
row,Compound,pIC50
1,"Cc1nc(C)n(CC(=O)N2CCN(c3ccc(F)c4c3CN(c3cnc(C(F)(F)F)nc3)CC4)C[C@H]2C)n1 [Example 132, 2-(3,5-Dimethyl-[1,2,4]triazol-1-yl)-1-{(R)-4-[5-fluoro-2-(2-trifluoromethyl-pyrimidin-5-yl)-1,2,3,4-tetrahydro-isoquinolin-8-yl]-2-methyl-piperazin-1-yl}-ethanone]",7.23
2,"Cc1nc(C)n(CC(=O)N2CCN(c3ccc(F)c4c3CN(c3cnc(C5CC5)nc3)CC4)C[C@H]2C)n1 [Example 133, 1-{(R)-4-[2-(2-Cyclopropyl-pyrimidin-5-yl)-5-fluoro-1,2,3,4-tetrahydro-isoquinolin-8-yl]-2-methyl-piperazin-1-yl}-2-(3,5-dimethyl-[1,2,4]triazol-1-yl)-ethanone]",8.27
3,"CCOc1ncc(N2CCc3cc(C(F)(F)F)cc(N4CCN(C(=O)Cn5cnc6cccnc65)[C@H](C)C4)c3C2)cn1 [Example 134, 1-{(R)-4-[2-(2-Ethoxy-pyrimidin-5-yl)-6-trifluoromethyl-1,2,3,4-tetrahydro-isoquinolin-8-yl]-2-methyl-piperazin-1-yl}-2-imidazo[4,5-b]pyridin-3-yl-ethanone]",7.28
4,"C[C@@H]1CN(c2cccc3c2CN(C(=O)OCc2ccccc2)CC3)CCN1C(=O)Cn1cccn1 [Example 135, 8-[(R)-3-Methyl-4-(2-pyrazol-1-yl-acetyl)-piperazin-1-yl]-3,4-dihydro-1H-isoquinoline-2-carboxylic acid benzyl ester]",6.94
5,"Cc1nc(C)n(CC(=O)N2CCN(c3cccc4c3CN(C(=O)OCc3ccccc3)CC4)C[C@H]2C)n1 [Example 136, 8-{(R)-4-[2-(3,5-Dimethyl-[1,2,4]triazol-1-yl)-acetyl]-3-methyl-piperazin-1-yl}-3,4-dihydro-1H-isoquinoline-2-carboxylic acid benzyl ester]",7.48
6,"O=C(Cn1cnc2cccnc21)N1CCN(c2cccc3c2CN(C(=O)OCc2ccccc2)CC3)CC1 [Example 137, 8-[4-(2-Imidazo[4,5-b]pyridin-3-yl-acetyl)-piperazin-1-yl]-3,4-dihydro-1H-isoquinoline-2-carboxylic acid benzyl ester]",8.04
7,"O=C(Cn1ccc2cccnc21)N1CCN(c2cccc3c2CN(C(=O)OCc2ccccc2)CC3)CC1 [Example 138, 8-[4-(2-Pyrrolo[2,3-b]pyridin-1-yl-acetyl)-piperazin-1-yl]-3,4-dihydro-1H-isoquinoline-2-carboxylic acid benzyl ester]",7.91
8,"Cn1c(=O)n(CC(=O)N2CCN(c3cccc4c3CN(C(=O)OCc3ccccc3)CC4)CC2)c2ccccc21 [Example 139, 8-{4-[2-(3-Methyl-2-oxo-2,3-dihydro-benzoimidazol-1-yl)-acetyl]-piperazin-1-yl}-3,4-dihydro-1H-isoquinoline-2-carboxylic acid benzyl ester]",7.66
9,"Cn1c(=O)n(CC(=O)N2CCN(c3cccc4c3CN(C(=O)c3ccccc3)CC4)CC2)c2ccccc21 [Example 140, 1-{2-[4-(2-Benzoyl-1,2,3,4-tetrahydro-isoquinolin-8-yl)-piperazin-1-yl]-2-oxo-ethyl}-3-methyl-1,3-dihydro-benzoimidazol-2-one]",7.29
10,"Cn1c(=O)n(CC(=O)N2CCN(c3cccc4c3CN(C(=O)Cc3ccccc3)CC4)CC2)c2ccccc21 [Example 141, 1-Methyl-3-{2-oxo-2-[4-(2-phenylacetyl-1,2,3,4-tetrahydro-isoquinolin-8-yl)-piperazin-1-yl]-ethyl}-1,3-dihydro-benzoimidazol-2-one]",6.72
11,"O=C(Cn1cnc2cccnc21)N1CCN(c2cccc3c2CN(S(=O)(=O)Cc2ccccc2)CC3)CC1 [Example 142, 2-Imidazo[4,5-b]pyridin-3-yl-1-[4-(2-phenylmethanesulfonyl-1,2,3,4-tetrahydro-isoquinolin-8-yl)-piperazin-1-yl]-ethanone]",7.18
12,"C[C@@H]1CN(c2cccc3c2CN(Cc2ccc(Cl)cc2)CC3)CCN1C(=O)Cn1cnc2cccnc21 [Example 143, 1-{(R)-4-[2-(4-Chloro-benzyl)-1,2,3,4-tetrahydro-isoquinolin-8-yl]-2-methyl-piperazin-1-yl}-2-imidazo[4,5-b]pyridin-3-yl-ethanone]",6.33
13,"C[C@@H]1CN(c2ccc(Br)c3c2CN(C(=O)OCc2ccccc2)CC3)CCN1C(=O)Cn1cnc2cccnc21 [Example 144, 5-Bromo-8-[(R)-4-(2-imidazo[4,5-b]pyridin-3-yl-acetyl)-3-methyl-piperazin-1-yl]-3,4-dihydro-1H-isoquinoline-2-carboxylic acid benzyl ester]",7.07
14,"C[C@@H]1CN(c2ccc(C(F)(F)F)c3c2CN(C(=O)OCc2ccccc2)CC3)CCN1C(=O)Cn1cnc2cccnc21 [Example 145, 8-[(R)-4-(2-Imidazo[4,5-b]pyridin-3-yl-acetyl)-3-methyl-piperazin-1-yl]-5-trifluoromethyl-3,4-dihydro-1H-isoquinoline-2-carboxylic acid benzyl ester]",7.59
15,"C[C@@H]1CN(c2ccc(C#N)c3c2CN(C(=O)OCc2ccccc2)CC3)CCN1C(=O)Cn1cnc2cccnc21 [Example 146, 5-Cyano-8-[(R)-4-(2-imidazo[4,5-b]pyridin-3-yl-acetyl)-3-methyl-piperazin-1-yl]-3,4-dihydro-1H-isoquinoline-2-carboxylic acid benzyl ester]",7.81
16,"Cc1nc(C)n(CC(=O)N2CCN(c3cc(F)c(F)c4c3CN(c3cnc(C(F)(F)F)nc3)CC4)C[C@H]2C)n1 [Example 147, 1-{(R)-4-[5,6-Difluoro-2-(2-trifluoromethyl-pyrimidin-5-yl)-1,2,3,4-tetrahydro-isoquinolin-8-yl]-2-methyl-piperazin-1-yl}-2-(3,5-dimethyl-[1,2,4]triazol-1-yl)-ethanone]",8.07
